These results are taken from US6096725A, “Methods of using αGal oligosaccharides as immune system targeting agents” (Neose Technologies, Inc., priority 1997, dated 2000).

Where two headings read alike, the source gives them in different places.

A short description of data set [1]: Pharmacokinetics after 15 minute intravenous bolus in baboons. To be noted: for clearance / half-life / Vd: baboon, plasma, iv, 500 umol/kg, 0.5 mMol/Kg 15 minute i.v. bolus; for Vd: read-out: Volume of Distribution. It is filed as in vivo, baboon. As to the method: The pharmacokinetics of the αGal trisaccharide compositions and the αGal pentasaccharide compositions were determined by delivering to one baboon by 15 minute intravenous bolus, 0.5 mMol/Kg of one oligosaccharide and 48 hours later, delivering 0.5 mmol/Kg of the second oligosaccharide, and for a second baboon, delivering the oligosaccharides according to the same procedure, but in the reverse order.
Three Baboons were outfitted with indwelling venous and arterial catheters to the femoral vessels, and held in place with the aid of a jacket. Oligosaccharides were administered through the catheter in a 15 minute continuous infusion.
(§1) The clearance is used to calculate the infusion rate needed to maintain a desired drug concentration. The half-life describes how quickly concentrations diminish with time. Mathematical formulations known in the art were applied to estimate the pharmacokinetic parameters of the αGal trisaccharide and αGal pentasaccharide. […] Compared to other drugs, the volumes of distribution of these oligosaccharides are low, less than the extravascular water volume (<400 mL/kg). The clearance is typical of compounds eliminated by GFR (glomerular filtration rate).

Data set [2] deals with mouse endothelial cell line, MAE. It is filed as cell-based. To be noted: 240 min.
The nature of data set [3]: Human dose and half-life estimates extrapolated from baboon pharmacokinetics. To be noted: human patient of 70 Kg. The procedure:
^1 To achieve a steady state serum concentration for monovalent αGal pentasaccharide of 1 mM (i.e., 0.9 mg/mL) in a human patient of 70 Kg, it is estimated that a loading dose of 412 mg/Kg be administered in the form of a bolus or 15 minute infusion, followed by a continuous infusion of 30 g/h over a 14 day period (see Table 2 for further αGal trisaccharide and αGal pentasaccharide 2 infusion regimens).
as §1

[4] abbreviates: to attain 0.5 mM steady state serum concentration.
Setting [5] is: to attain 1.0 mM steady state serum concentration.
Setting [6] is: to attain 2.0 mM steady state serum concentration.

As for `CC(=O)N[C@H]1[C@H](O[C@H]2[C@@H](O)[C@@H](CO)O[C@@H](O[C@H]3[C@H](O)[C@@H](O)C(O)O[C@@H]3CO)[C@@H]2O)O[C@H](CO)[C@@H](O[C@@H]2O[C@H](CO)[C@H](O)[C@H](O[C@H]3O[C@H](CO)[C@H](O)[C@H](O)[C@H]3O)[C@H]2O)[C@@H]1O` (stereo partly drawn) [αGal pentasaccharide, Galα1-3Galβ1-4GlcNAcβ1-3Galβ1-4Glc], in data set [1] (baboon 1003), the clearance turned out to be 2.93 mL/min/kg, the half-life is 47.3 min and the Vd came out at 0.199 L/kg. Moreover, in data set [1] (baboon 1015), the clearance stood at 3.97 mL/min/kg, the half-life was found to be 40.2 min and the Vd came out at 0.23 L/kg. Besides, in data set [1] (setting [4]), the “Calculated continuous infusion, total amount” value (“Calculated continuous infusion” for short) is recorded as 1.44 Kg/14 days; the Calculated loading dose is given as 4.12 g/20 Kg baboon; the “Calculated loading dose (bolus or 15 min infusion)” value is 206 mg/kg. In addition, in data set [1] (setting [5]), the “Calculated continuous infusion” value is recorded as 2.88 Kg/14 days; the Calculated loading dose is listed as 8.24 g/20 Kg baboon; the “Calculated loading dose (bolus or 15 min infusion)” value was 412 mg/kg. Further, in data set [1] (setting [6]), the “Calculated continuous infusion” value is 5.74 Kg/14 days; the Calculated loading dose was 16.48 g/20 Kg baboon; the “Calculated loading dose (bolus or 15 min infusion)” value is 824 mg/kg. In addition, the “Reduction of cytotoxicity of baboon sera against MAE cells” value in data set [2] is given as 100%. For the same molecule, the Estimated continuous infusion in data set [3] (1 mM steady state, over a 14 day period) is on record as 30 g/h. For the same molecule, the “Estimated loading dose (bolus or 15 minute infusion)” value in data set [3] (steady state serum concentration 1 mM (0.9 mg/mL)) was 412 mg/kg.

Usually clearance stands for a measure of how efficiently the substance is removed, as volume per time. As a reminder, the half-life is how long it takes for the measured level to halve.
